Measured values reported in PMC12543283, “TastepepAI: An artificial intelligence platform for taste peptide de novo design” (PLOS Computational Biology, 2025).
Ends that are not written are not given here.

How the values were obtained:
[1] = Electronic tongue analysis (Taste-Sensing System SA 402B); design: unit not given here; conditions: reference solution 30 mM KCl + 0.3 mM tartaric acid as baseline, first measurement excluded; for Umami: sensor AAE; for Umami / Bitter / Sweet: detection threshold 0, room temperature; for Umami / Bitter / Sour / Salty: four replicates; for Sour: detection threshold -13, room temperature; for Salty: detection threshold -6, room temperature; for Sweet: measured five times
Procedure, shortened: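 Room-temperature electronic-tongue readings with five taste probes, calibrated against a reference of 30 mM KCl and 0.3 mM tartaric acid. Samples at 0.1 mg/mL and 1.0 mg/mL were measured four times, sweetness five times, and the first run was dropped. Detection cut-offs were sour −13, salty −6, others 0.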

[2] = test system: human bronchial epithelial cells (BEAS-2B)
[3] = test system: human embryonic kidney cells (HEK293T)
[4] = test system: human pancreatic ductal epithelial cells (HPNE)
Method: The cytotoxicity of 73 synthetic peptides was evaluated using four human cell lines: human pancreatic ductal epithelial cells (HPNE), human embryonic kidney cells (HEK293T), human umbilical vein endothelial cells (HUVEC), and human bronchial epithelial cells (BEAS-2B). When cell density reached 70% confluence, the complete culture medium was replaced with serum-free maintenance medium, and peptides were added at a final concentration of 100 μM for 36 h. Control groups received only serum-free maintenance medium without peptides. Cell proliferation was assessed using the CCK-8 assay kit (Solarbio, CA1210) according to the manufacturer’s instructions.

[5] = test system: human umbilical vein endothelial cells (HUVEC)

Row | Substance | Umami ([1]; peptide 0.1 mg/mL) | Umami ([1]; peptide 1 mg/mL) | Bitter ([1]; sensor C00, peptide 0.1 mg/mL) | Bitter ([1]; sensor C00, peptide 1 mg/mL) | Sour ([1]; sensor CA0, peptide 0.1 mg/mL) | Sour ([1]; sensor CA0, peptide 1 mg/mL) | Salty ([1]; sensor CT0, peptide 0.1 mg/mL) | Salty ([1]; sensor CT0, peptide 1 mg/mL) | Sweet ([1]; sensor GL1, peptide 0.1 mg/mL) | Sweet ([1]; sensor GL1, peptide 1 mg/mL) | Average cell viability, BEAS-2B [2] | Cell viability, BEAS-2B, Data1 [2] | Cell viability, BEAS-2B, Data2 [2] | Cell viability, BEAS-2B, Data3 [2] | Average cell viability, HEK293T [3] | Cell viability, HEK293T, Data1 [3] | Cell viability, HEK293T, Data2 [3] | Cell viability, HEK293T, Data3 [3] | Average cell viability, HPNE [4] | Cell viability, HPNE, Data1 [4] | also measured
1 | FNGVE [TaPep61] | 3.14 | -2.71 | 6.59 | 3.33 | -7.21 | 6.60 | -23.88 | 3.55 | 8.89 | -2.71 | 99.57 | 95.41 | 109.57 | 93.72 | 98.80 | 99.65 | 96.91 | 99.84 | 94.34 | 84.66 | Cell viability, HPNE, Data2 [4]: 82.36; Cell viability, HPNE, Data3 [4]: 116.01; Average cell viability, HUVEC [5]: 99.47; Cell viability, HUVEC, Data1 [5]: 89.49; Cell viability, HUVEC, Data2 [5]: 104.82; Cell viability, HUVEC, Data3 [5]: 104.10
2 | EFPEQN [TaPep17] | 1.17 | -5.94 | 7.25 | 3.52 | -2.22 | 14.54 | -21.65 | -0.53 | 5.23 | -5.15 | 109.94 | 112.36 | 107.58 | 109.87 | 98.68 | 94.45 | 102.97 | 98.61 | 92.31 | 86.66 | Cell viability, HPNE, Data2 [4]: 92.25; Cell viability, HPNE, Data3 [4]: 98.04; Average cell viability, HUVEC [5]: 96.70; Cell viability, HUVEC, Data1 [5]: 94.76; Cell viability, HUVEC, Data2 [5]: 94.12; Cell viability, HUVEC, Data3 [5]: 101.22
3 | LNDVE [TaPep66] | 1.83 | -3.37 | 7.14 | 4.03 | -3.77 | 8.49 | -21.50 | 4.47 | 6.93 | -3.10 | 98.04 | 103.39 | 89.73 | 101.00 | 101.96 | 96.81 | 102.97 | 106.09 | 110.62 | 96.14 | Cell viability, HPNE, Data2 [4]: 118.00; Cell viability, HPNE, Data3 [4]: 117.70; Average cell viability, HUVEC [5]: 96.70; Cell viability, HUVEC, Data1 [5]: 88.85; Cell viability, HUVEC, Data2 [5]: 100.59; Cell viability, HUVEC, Data3 [5]: 100.67
4 | FEGPE [TaPep62] | 1.43 | -4.77 | 7.43 | 3.70 | -2.87 | 11.86 | -20.91 | 8.50 | 6.38 | -4.13 | 106.55 | 112.26 | 103.59 | 103.79 | 100.16 | 97.95 | 102.21 | 100.32 | 104.06 | 108.32 | Cell viability, HPNE, Data2 [4]: 92.35; Cell viability, HPNE, Data3 [4]: 111.51; Average cell viability, HUVEC [5]: 108.97; Cell viability, HUVEC, Data1 [5]: 109.69; Cell viability, HUVEC, Data2 [5]: 105.38; Cell viability, HUVEC, Data3 [5]: 111.84
5 | VEKVE [TaPep67] | 1.99 | -4.10 | 7.39 | 4.01 | -4.19 | 10.40 | -19.59 | 9.82 | 6.41 | -3.54 | 110.54 | 94.32 | 118.94 | 118.34 | 100.22 | 99.37 | 105.99 | 95.30 | 96.14 | 105.92 | Cell viability, HPNE, Data2 [4]: 99.23; Cell viability, HPNE, Data3 [4]: 83.26; Average cell viability, HUVEC [5]: 100.75; Cell viability, HUVEC, Data1 [5]: 112.48; Cell viability, HUVEC, Data2 [5]: 97.95; Cell viability, HUVEC, Data3 [5]: 91.80
